From paper PMC10363480 (Plant Communications, 2023)
Entries after “also recorded” stand apart in the source; their conditions may differ.

Test system: mitochondria or chloroplast of Chlamydomonas reinhardtii
Experiment: Subcellular localization of Venus reporter by epifluorescence microscopy (manual targeting assignment)
Type: cell-based
Excerpt: In a bid to keep peptidase recognition sites intact, C-terminal elements were designed to start 10 residues upstream of the cleavage site, even though this slightly truncates TP helices. Peptides carrying the 15-amino-acid cTP N-terminus (cTP-N) will be denoted ^cP. Similarly, peptides with C-terminal elements from RCA1-cTP (cTP-C) or CAG2-mTP (mTP-C) will be denoted P^c or P^m, respectively. Peptide variants are used to drive the subcellular localization of a Venus fluorescent reporter protein, which was assessed using fluorescence microscopy; in Figure 2, an executive overview of observed Venus localization is presented for all constructs. […] Here, we use automated image segmentation to validate our subcellular localization assessment (Supplemental Figure 2, Supplemental text). […] The reader will be asked to return to Figure 2 throughout, with Figures 3 and 4 providing selected micrographs as examples highlighting particular points of interest.
Chlamydomonas TP sequences were amplified from genomic DNA extracted from strain T222+ (CC-5101). Templates for codon-optimized HA-RAMP, RP, and R→K modified TP sequences were obtained by gene synthesis (Eurofins Genomics). Correct assembly was verified by sequencing (Eurofins Genomics). Linear transformation cassettes were generated through restriction digestion with EcoRV (New England Biolabs).
Constructs were transformed into wild-type strain T222+ (CC-5101) using a protocol described previously ([Onishi and Pringle, 2016]), except using 4 μl of DNA at 2 μg/μl.
Strains with suspected mitochondrial targeting were treated with 0.1 μM MitoTracker Red CMXRos (Thermo Fisher Scientific) in growth medium for 30 min in the dark and washed with TAP prior to taking images.
Legend for Fig. S3 – S20. Three independent transformant lines (Strains 1-3) are shown for each combination of modifications (A-L), represented by a cartoon and a shorthand description (cf. Fig.
2). Where a construct was interpreted as generating reporter localization in mitochondria or […]
Epifluorescence microscopy images of typical cells for each strain are shown. MitoTracker fluorescence, false-coloured in cyan, indicates the position of mitochondria (although parts of the cell exterior are sometimes also stained). False-coloured yellow fluorescence from the Venus channel reports on the subcellular localization of the fluorescent reporter. Chlorophyll autofluorescence, shown in magenta, indicates the location of the chloroplast. Scale bars are 5µm. Brightness (Br.) was adjusted for clarity: fluorescence intensity values were restricted to the range shown for each channel by matching coloured rectangles. Intensity scales to 0 at the bottom of the panel, and to 65535 at the top.
On the right-hand side, quantitative information associated with each construct is shown. Data was normalized such that averages range from 0 to 1 across all constructs (cf. Fig S2). Individual cell measurements may exceed this range; for clarity, the range shown here is limited to -0.5 to 1.5, with outliers that have more extreme values shown as lying beyond a dashed line. Strain 1 is plotted as circles, strain 2 as squares, and strain 3 as diamonds. Venus: Fluorescence plate reader data of transformants screened for this construct (Venus fluorescence, accounting for cell density using linear regression of OD750 and chlorophyll fluorescence trained on ‘no venus’ control transformants). Transformants that were not selected after screening are shown as small grey circles. A colour code ranging from white (low Venus fluorescence) to black (high Venus fluorescence) is used for strains 1-3 and the average thereof. Automated image quantification data: pyr/chl: Venus channel signal in the pyrenoid relative to in the chlorophyll region; mt/cell: Venus channel signal in mitochondria relative to the whole cell. Each point corresponds to a single cell.
The colour code code is the same as that below distributions in Fig. S2, i.e. blue highlights the […]

[1] = manual targeting assignment of the Venus reporter construct in Chlamydomonas: Neither / Mitochondria / Chloroplast / Dual, (partial) = partial targeting
[2] = targeting of the Venus reporter fused to the peptide, expressed in Chlamydomonas reinhardtii, manual assignment from epifluorescence microscopy, full or partial
[3] = peptide-Venus reporter construct expressed in Chlamydomonas reinhardtii, manual targeting assignment (Neither / Mitochondria / Chloroplast / Dual; partial = partial targeting)

Row | Sequence | Localisation [2] | Localisation [3] | also measured
1 | MQVTMKSSAVSGQRVMGWIRDFGRRIERVGQHTRDATIQTIAVAQQAANVAATLRG [c.S1D.R] |  |  | Localisation [1]: Mitochondria
2 | MQVTMKSSAVSGQRVMGLLLDTLRGAARDIAGIALERLRCRITGCRPLTQTAESFRGVSSQFFDAPNGPSVKQVLIEDEW [c.R2G.R.m] |  |  | Localisation [1]: Mitochondria
3 | MQVTMKSSAVSGQRVMKYYGNGVSCNKKGCSVDWGKAIGIIGNNAAANLTTGGKAGWKGSVRRAQLQVVASSRKQMGRWRSIDAGVDASDDQ [c.EHF.K.c] | Chloroplast |  | 
4 | MGLLLDTLKGAAKDIAGIALEKLKCKITGCKPLTQTAESFRGVSSQFFDAPNGPSVKQVLIEDEW [R2G.K.m] | Mitochondria (partial) |  | 
5 | MQVTMKSSAVSGQRVSVRRAQLQVVASSRKQMGRWRSIDAGVDASDDQ [c.-.c] | Chloroplast (partial) |  | 
6 | MQVTMKSSAVSGQRVDEVNNDNCRIRFRGDISSESDRMNINYLTQTAESFRGVSSQFFDAPNGPSVKQVLIEDEW [c.RP2.R.m] |  |  | Localisation [1]: Neither
7 | MQVTMKSSAVSGQRVDEVNNDNCRIKFKGDISSESDKMNINYSVRRAQLQVVASSRKQMGRWRSIDAGVDASDDQ [c.RP2.K.c] | Neither |  | 
8 | MQVTMKSSAVSGQRVMKYYGNGVHCTKSGCSVNWGEAFSAGVHRLANGGNGFW [c.LCA.K] |  | Neither | 
9 | MGLFSRFNRRRIRSGLIRIIRTAGREAGLEALRTGIDVIGCRIRGECLTQTAESFRGVSSQFFDAPNGPSVKQVLIEDEW [E1S.R.m] |  | Mitochondria (partial) | 
10 | MVNYGNGVSCSRTRCSVNWGIITHQAFRVTSGVASG [B15.R] |  | Neither | 
11 | MGWIRDFGKRIERVGQHTRDATIQTIAVAQQAANVAATLKGLTQTAESFRGVSSQFFDAPNGPSVKQVLIEDEW [S1D.K.m] | Neither |  | 
12 | MSFLTTFRDLAIRAARSAGQSVLSTLSCRLSNTCSVRRAQLQVVASSRKQMGRWRSIDAGVDASDDQ [B2I.R.c] |  |  | Localisation [1]: Mitochondria
13 | MALWMTLLRRVLRAAARAALNAVLVGANASVRRAQLQVVASSRKQMGRWRSIDAGVDASDDQ [DS4.R.c] |  | Neither | 
14 | MQVTMKSSAVSGQRVALWMTLLKKVLKAAAKAALNAVLVGANALTQTAESFRGVSSQFFDAPNGPSVKQVLIEDEW [c.DS4.K.m] |  | Neither | 
15 | MALWRTMLRRLGTMALHAGRAAFGAAADTISQSVRRAQLQVVASSRKQMGRWRSIDAGVDASDDQ [DDM.R.c] |  |  | Localisation [1]: Neither
16 | MALWMTLLKKVLKAAAKAALNAVLVGANA [DS4.K] |  | Neither | 
17 | MDEVNNDNCRIKFKGDISSESDKMNINY [RP2.K] | Neither |  | 
18 | MQVTMKSSAVSGQRVFLPLLAGLAANFLPRIFCRITRRC [c.B1E.R] | Mitochondria |  | 
19 | MQVTMKSSAVSGQRVFLPLLAGLAANFLPKIFCKITRKCLTQTAESFRGVSSQFFDAPNGPSVKQVLIEDEW [c.B1E.K.m] | Dual |  | 
20 | MGGAKVATKLTQTAESFRGVSSQFFDAPNGPSVKQVLIEDEW [CH.K.m] |  |  | Localisation [1]: Neither
21 | MGLFSKFNKKKIKSGLIKIIKTAGKEAGLEALRTGIDVIGCKIKGECSVRRAQLQVVASSRKQMGRWRSIDAGVDASDDQ [E1S.K.c] |  | Neither | 
22 | MQVTMKSSAVSGQRVMKYYGNGVHCTRSGCSVNWGEAFSAGVHRLANGGNGFW [c.LCA.R] |  | Neither | 
23 | MLKKVGQSLVPFAKAGLTQTAESFKGVSSQFFDAPNGPSVKQVLIEDEW [MH.K.m] |  |  | Localisation [1]: Neither
24 | MQVTMKSSAVSGQRVGIGRFLHSARRFGRAFVGEIMNS [c.MII.R] |  | Mitochondria | 
25 | MGWIRDFGRRIERVGQHTRDATIQTIAVAQQAANVAATLRGSVRRAQLQVVASSRKQMGRWRSIDAGVDASDDQ [S1D.R.c] |  |  | Localisation [1]: Chloroplast (partial)
26 | MQVTMKSSAVSGQRVMLKRVGQSLVPFARAG [c.MH.R] |  |  | Localisation [1]: Neither

Row | Sequence | Localisation [2] | Localisation [3] | also measured
27 | MKYYGNGVSCNKKGCSVDWGKAIGIIGNNAAANLTTGGKAGWKG [EHF.K] | Neither |  | 
28 | MQVTMKSSAVSGQRVALWMTLLKKVLKAAAKAALNAVLVGANA [c.DS4.K] |  | Neither | 
29 | MKYYGNGVSCNKKGCSVDWGKAIGIIGNNAAANLTTGGKAGWKGLTQTAESFRGVSSQFFDAPNGPSVKQVLIEDEW [EHF.K.m] | Neither |  | 
30 | MQVTMKSSAVSGQRVGIGKFLHSAKKFGKAFVGEIMNSSVRRAQLQVVASSRKQMGRWRSIDAGVDASDDQ [c.MII.K.c] |  | Chloroplast | 
31 | MNIVVYWNFTLWHMDINARNAGCDGEGSSVRRAQLQVVASSRKQMGRWRSIDAGVDASDDQ [RP1.K.c] | Neither |  | 
32 | MQVTMKSSAVSGQRVMALWKTMLKKLGTMALHAGKAAFGAAADTISQLTQTAESFRGVSSQFFDAPNGPSVKQVLIEDEW [c.DDM.K.m] | Neither |  | 
33 | MQVTMKSSAVSGQRVMALWKTMLKKLGTMALHAGKAAFGAAADTISQ [c.DDM.K] | Neither |  | 
34 | MQVTMKSSAVSGQRVMGWIRDFGKRIERVGQHTRDATIQTIAVAQQAANVAATLKGLTQTAESFRGVSSQFFDAPNGPSVKQVLIEDEW [c.S1D.K.m] | Dual |  | 
35 | MQVTMKSSAVSGQRVMGLFSKFNKKKIKSGLIKIIKTAGKEAGLEALRTGIDVIGCKIKGECSVRRAQLQVVASSRKQMGRWRSIDAGVDASDDQ [c.E1S.K.c] |  | Chloroplast | 
36 | MQVTMKSSAVSGQRVMKYYGNGVSCNKKGCSVDWGKAIGIIGNNAAANLTTGGKAGWKG [c.EHF.K] | Neither |  | 
37 | MQVTMKSSAVSGQRVMGLLLDTLKGAAKDIAGIALEKLKCKITGCKPLTQTAESFRGVSSQFFDAPNGPSVKQVLIEDEW [c.R2G.K.m] | Mitochondria |  | 
38 | MKYYGNGVHCTRSGCSVNWGEAFSAGVHRLANGGNGFWSVRRAQLQVVASSRKQMGRWRSIDAGVDASDDQ [LCA.R.c] |  | Chloroplast (partial) | 
39 | MSFLTTFRDLAIRAARSAGQSVLSTLSCRLSNTCLTQTAESFRGVSSQFFDAPNGPSVKQVLIEDEW [B2I.R.m] |  |  | Localisation [1]: Mitochondria
40 | GKIPVKAIKKAGAAIGKGLRAINIASTAHDVYSFFKPKHKKK [SIM, SI moricin, HA-RAMP antimicrobial peptide, reference compound] |  |  | chloroplast targeting upon sole addition of cTP-N (^cP) (15 N-terminal residues of RCA1-cTP added, no C-terminal element, Figure 2): at least partial chloroplast targeting; also recorded: generated chloroplast targeting; targeting when combining cTP-N with mTP-C (^cP^m) (Figure 2, bare name = K and R versions): chloroplast targeting
41 | MWLSRTARRLENSARRRISEGIAIAIRGGSRLTQTAESFRGVSSQFFDAPNGPSVKQVLIEDEW [CP3.R.m] |  | Mitochondria | 
42 | MGRIPVRAIRRAGAAIGRGLRAINIASTAHDVYSFFRPRHRRRSVRRAQLQVVASSRKQMGRWRSIDAGVDASDDQ [SIM.R.c] |  |  | Localisation [1]: Neither
43 | MGGARVATR [CH.R] |  |  | Localisation [1]: Neither
44 | MDEVNNDNCRIKFKGDISSESDKMNINYSVRRAQLQVVASSRKQMGRWRSIDAGVDASDDQ [RP2.K.c] | Neither |  | 
45 | MQVTMKSSAVSGQRVMSFLTTFKDLAIKAAKSAGQSVLSTLSCKLSNTC [c.B2I.K] | Mitochondria (partial) |  | 
46 | MGWIRDFGKRIERVGQHTRDATIQTIAVAQQAANVAATLKG [S1D.K] | Neither |  | 
47 | MQVTMKSSAVSGQRVFLPLLAGLAANFLPRIFCRITRRCSVRRAQLQVVASSRKQMGRWRSIDAGVDASDDQ [c.B1E.R.c] | Chloroplast |  | 
48 | MQVTMKSSAVSGQRVFLPLLAGLAANFLPKIFCKITRKC [c.B1E.K] | Mitochondria |  | 
49 | MFLPLLAGLAANFLPKIFCKITRKCSVRRAQLQVVASSRKQMGRWRSIDAGVDASDDQ [B1E.K.c] |  | Neither | 
50 | MGLLLDTLRGAARDIAGIALERLRCRITGCRPLTQTAESFRGVSSQFFDAPNGPSVKQVLIEDEW [R2G.R.m] |  |  | Localisation [1]: Mitochondria
51 | MGLLLDTLKGAAKDIAGIALEKLKCKITGCKP [R2G.K] | Neither |  | 
52 | MVNYGNGVSCSKTKCSVNWGIITHQAFRVTSGVASGLTQTAESFRGVSSQFFDAPNGPSVKQVLIEDEW [B15.K.m] |  | Neither | 
